Laboratory results taken from patent US9796958B2, “Bacterial growth enhancer” (Plant Bioscience Limited, priority 2005, dated 2017).

What was measured:
Type in all cases: cell-based
L. casei = test: Delivery of lactoferrin-complexed 55Fe to bacteria in serum-SAPI; settings: 55Fe-complexed human lactoferrin, tannic acid 50 μg/ml, other compounds 100 μM, BF 2% v/v
Protocol: (§1) L. casei and E. coli were added at around 5×10^6 CFU/ml to triplicate 1 ml serum-SAPI medium containing the additions shown in Table 2, and 2×10^5 cpm/ml of ^55Fe-complexed human lactoferrin. Tannic acid was used at 50 μg/ml, the other compounds were all used at 100 μM, final concentration; BF was used at 2% v/v. Cultures were incubated as described in the legend to FIG. 2, and growth enumerated on MRS agar (L. casei) or Luria agar (E. coli). ^55Fe incorporation was determined by scintillation counting of triplicate washed bacteria cultures.

E. coli = settings: 55Fe-complexed human lactoferrin, tannic acid 50 μg/ml, other compounds 100 μM, BF 2% v/v
Protocol: as §1

LAB = LAB growth response to catecholamines in serum-based media; settings: serum-based media only

| Compound | 55Fe incorporation/ml of culture (L. casei) | 55Fe incorporation/ml of culture (E. coli) | Increase in LAB growth (LAB) |
| --- | --- | --- | --- |
| O=C(O)/C=C/c1ccc(O)c(O)c1 [Caffeic acid] | 29 | 11385 |  |
| NC[C@H](O)c1ccc(O)c(O)c1 [Noradrenaline] | 29 | 8542 | around 2 log-fold |
| O=C(OC[C@H]1O[C@@H](OC(=O)c2cc(O)c(O)c(OC(=O)c3cc(O)c(O)c(O)c3)c2)[C@H](OC(=O)c2cc(O)c(O)c(OC(=O)c3cc(O)c(O)c(O)c3)c2)[C@@H](OC(=O)c2cc(O)c(O)c(OC(=O)c3cc(O)c(O)c(O)c3)c2)[C@@H]1OC(=O)c1cc(O)c(O)c(OC(=O)c2cc(O)c(O)c(O)c2)c1)c1cc(O)c(O)c(OC(=O)c2cc(O)c(O)c(O)c2)c1 [Tannic acid] | 28 | 13952 |  |
| NCCc1ccc(O)c(O)c1 [Dopamine] | 48 | 6815 | around 2 log-fold |
| O=C(/C=C/c1ccc(O)c(O)c1)O[C@@H]1C[C@](O)(C(=O)O)C[C@@H](O)[C@H]1O [Chlorogenic acid] | 28 | 7374 |  |
| Catechin | 57 | 3931 |  |
